{"source": "paper doi:10.1101/2020.08.03.235622v1", "about": "(bioRxiv, 2020)", "key": {"[1]": {"tested_on": "flagella (fliC)", "conditions": "cited from earlier work"}, "[2]": {"tested_on": "P. aeruginosa PA103 T3SS", "format": "cell-based, Pseudomonas aeruginosa"}, "[3]": {"tested_on": "Salmonella SPI-1 T3SS", "format": "cell-based, Salmonella enterica Typhimurium"}, "[4]": {"tested_on": "P. aeruginosa T3SS gene transcription (exoT, exoS, dsbA)", "test": "qPCR of T3SS genes in P. aeruginosa", "format": "cell-based, Pseudomonas aeruginosa", "conditions": "60 μM cyclic peptomer; for transcription of exoT: PA103, low calcium, 50 μM MBX1641, 3 hrs"}, "[5]": {"tested_on": "P. aeruginosa PAO1 T3SS (ExoS, ExsE)", "format": "cell-based, Pseudomonas aeruginosa"}, "[6]": {"tested_on": "HeLa cells", "test": "Host cell viability by LDH release", "format": "cell-based, human", "conditions": "9 μM, infected HeLa cells"}}, "note": "Read-outs that look alike come from different tables or passages of the source."}
{"compound": "O=[N+]([O-])c1cc(CN2CCN(c3ccc(F)cc3)CC2)c(O)c2ncccc12", "note": "[INP1855]", "values": [{"measurement": "lowest known inhibitory concentration (~), fliC/fla", "setting": "[1]", "result": "~30", "unit": "µM"}]}
{"compound": "Propylamine, Benzylamine, L-Leu, L-Ile, D-Leu, and D-Phe (PBLLDD) (head to tail) [4EpDN]", "values": [{"measurement": "T3SS inhibitory activity (ExoU secretion), in words", "setting": "[2]", "result": "improved activity"}, {"measurement": "IC50", "setting": "[2]; read-out: IC50, ExoU secretion (PA, Psc/Ysc)", "result": 3.9, "unit": "µM"}, {"measurement": "concentration at which inhibition of SipA secretion was observed", "setting": "[3]", "result": "~ 1.4 μM"}, {"measurement": "concentration at which inhibition of SipC secretion was observed", "setting": "[3]", "result": "~ 1 μM"}, {"measurement": "expression of the effectors exoS and exoT", "setting": "[4]; P. aeruginosa PAO1 lacking all known efflux pumps, 3 hrs", "result": "did not affect expression"}, {"measurement": "amount of secreted ExoS", "setting": "[5]", "result": "significantly reduced"}, {"measurement": "secretion of the regulator ExsE", "setting": "[5]", "result": "did not significantly impact secretion"}, {"measurement": "host cell viability as assayed by LDH release", "setting": "[6]", "result": "without affecting host cell viability"}]}
{"compound": "CC(Oc1ccc(Cl)cc1Cl)C(=O)NCc1ccc2c(c1)OCO2", "note": "(centres unmarked) [MBX1641, reference compound]", "values": [{"measurement": "transcription of exoT", "setting": "[4]", "result": "did"}]}
{"compound": "Propylamine, Benzylamine, D-Leu, L-Ile, L-Leu, and D-Phe (PBDLLD) (head to tail) [1EpDN]", "values": [{"measurement": "IC50", "setting": "[2]; read-out: IC50, inhibition of T3SS effector (ExoU) secretion in P. aeruginosa", "result": "~8", "unit": "µM"}, {"measurement": "transcription of exoT", "setting": "[4]", "result": "did not inhibit transcription of exoT"}, {"measurement": "amount of secreted ExoS", "setting": "[5]", "result": "significantly reduced"}]}
{"compound": "O=[N+]([O-])c1cc(CN2CCN(c3ccccc3)CC2)c(O)c2ncccc12", "note": "[INP1750]", "values": [{"measurement": "lowest known inhibitory concentration (~), fliC/fla", "setting": "[1]", "result": "~80", "unit": "µM"}]}
